The values below come from the Deep4Chem optical property database.

“And” between values parts separate entries of the source, which are not always exact repeats. Equal values may be shown once.

This series can be described thus: solvent given as SMILES.

With `CCCCN1C(=O)c2cc(Oc3ccc(C(C)(C)C)cc3)c3c4c(Oc5ccc(C(C)(C)C)cc5)cc5c(=O)n6c(c7cc(Oc8ccc(C(C)(C)C)cc8)c(c8c(Oc9ccc(C(C)(C)C)cc9)cc(c2c38)C1=O)c4c57)=Cc1ccc2ccccc2[n+]1[B-]6(F)F`, the absorption maximum (in ClCCl) was 648 nm.
The same measure, in the same setting: then `Cc1cc2ccccc2c2c1c1ccccc1n2-c1ccc(N(c2ccccc2)c2ccccc2)cc1`, with 304 nm; and `Cc1cccc2nc(-c3ccc(-c4cc(=O)cc(-c5ccccc5)o4)cc3)c(NC3CCCCC3)n12`, with 356 nm.
In the case of `CCCCC(CC)CO[N+](=O)[O-]` (stereo not drawn), the absorption maximum is, setting by setting: (in CO) 218 nm; (in O) 198 nm.
Take `Nc1ccc2cn[nH]c2c1`: the absorption maximum (in C1CCCCC1) was 296 nm.
`COc1ccccc1-c1c2ccc(=[N+]3CCCCC3)cc-2oc2cc(N3CCCCC3)ccc12`: the absorption maximum (in CCO) turned out to be 564 nm and the absorption maximum (in ClCCl) was determined as 566 nm.
In turn, `c1ccc2[nH]ncc2c1` came in with an absorption maximum (in C1CCCCC1) of 294 nm.
`CCCN1c2ccccc2Sc2cc(C3=C4C=CC=[N+]4[B-](F)(F)n4cccc43)ccc21` registered an absorption maximum (in ClCCl) of 499 nm.
Under “in Cc1ccccc1”, `Cc1cc(C)c(B(c2ccc(N(c3ccccc3)c3ccccc3)cc2)c2c(C)cc(C)cc2C)c(C)c1` showed an absorption maximum of 380 nm.
As for `COc1c2ccccc2c(OC)c2c1c1cc(F)ccc1n2C`, the absorption maximum is reported as 415 nm (in C1CCCCC1), 417 nm (in CC#N), 416 nm (in CO) and 419 nm (in ClCCl).
`CCn1c2ccccc2c2cc(C#Cc3cc(C#Cc4ccc5c(c4)c4ccccc4n5CC)nc(S(C)(=O)=O)n3)ccc21`: the absorption maximum was 408 nm (in C1CCOC1); 405 nm (in CCOC(C)=O); 415 nm (in CN(C)C=O); 411 nm (in Cc1ccccc1); 417 nm (in ClCCl).
Compound `CCCCCCOc1cc(N(CC)CC)ccc1/C=C(\C#N)c1ccc(/C=C/C(=C(C#N)C#N)c2ccc(N(c3ccccc3)c3ccccc3)cc2)s1` came in with an absorption maximum (in ClCCl) of 557 nm.
As to `c1ccc2c(C3=C(c4cccc5ccccc45)c4cccc5c4c(cc4nc6ccccc6nc45)O3)cccc2c1`, the absorption maximum (in ClCCl) was found to be 486 nm.
Compound `CO[B-]1(OC)n2c(C)cc(C)c2C(c2ccc(I)cc2)=C2C(C)=CC(C)=[N+]21` came in with an absorption maximum (in ClC(Cl)Cl) of 505 nm.
The compound `Cc1cccc(C)c1N1C(c2ccccc2)=Cc2ccc3ccccc3[n+]2[B-]1(F)F` gave an absorption maximum (in ClCCl) of 447 nm.
Turning to `O=C1Nc2ccccc2/C1=C/C(=O)c1ccc(O)cc1`, the absorption maximum is, setting by setting: (in C1CCCCC1) 333 nm; (in C1COCCO1) 334 nm; (in CC#N) 332 nm; (in CC(C)(C)O) 336 nm; (in CC(C)O) 338 nm; (in CCCCCC) 331 nm. Moreover, the absorption maximum stood at 337 nm (in CCCCO); 334 nm (in CCOC(C)=O); 337 nm (in CN(C)C=O); 336 nm (in CO); 336 nm (in ClCCl); 338 nm (in O).
`O=[N+]([O-])c1ccc2nc3cc4ccccc4cc3c(-c3ccccc3)c2c1` gave an absorption maximum (in ClCCl) of 400 nm.
As to `N#Cc1ccc2c(c1)C1(c3cc(C#N)ccc3-2)c2ccccc2N(c2ccccc2)c2ccccc21`, the absorption maximum (in Cc1ccccc1) turned out to be 330.33 nm.
Compound `Cc1cccc(C)c1` registered an absorption maximum (in C1CCCCC1) of 259.74 nm.
The compound `CC1=NN(c2cccc3ccccc23)[B-](F)(F)[n+]2ccccc21` displayed an absorption maximum (in ClCCl) of 432 nm.
Take `CCCCc1ccc(-n2c3c4ccc(C(F)(F)F)cc4nnc3c3c2c2nnc4cc(C(F)(F)F)ccc4c2n3-c2ccc(CCCC)cc2)cc1`: for the setting “in Cc1ccccc1”, the absorption maximum was 322 nm.
Where the note is “in C1CCOC1”, `F[B-]1(F)n2c(c(-c3ccccc3)c(-c3ccccc3)c2-c2ccccc2)C=C2C(c3ccccc3)=C(c3ccccc3)C(c3ccccc3)=[N+]21` came in with an absorption maximum of 576 nm.
As for `CCn1c2ccccc2oc2c(C#N)c3oc4ccccc4oc3c(C#N)c21`, the absorption maximum (in ClC(Cl)Cl) was determined as 470 nm.
`COc1cccc(-c2nc(-c3ccccc3)c(-c3ccccc3)[nH]2)c1`: the absorption maximum (in CO) is listed as 300 nm.
On to `O=C1c2ccccc2C2=Cc3cccc[n+]3[B-](F)(F)N12`, for which the absorption maximum was 391 nm (in CCO); 399 nm (in Cc1ccccc1); 396 nm and 385 nm (in ClCCl).
For `CC1(C)c2ccccc2N(c2ccc(-c3nnc(-c4ccccc4O)o3)cc2)c2ccccc21`, the absorption maximum (in C1CCOC1) was determined as 361 nm; the absorption maximum (in C1COCCO1) was found to be 363 nm; the absorption maximum (in CC#N) was found to be 358 nm; the absorption maximum (in CC(C)=O) worked out at 361 nm; the absorption maximum (in CCCCCC) is recorded as 362 nm; the absorption maximum (in CCO) is reported as 361 nm. In addition, the absorption maximum by setting is: (in CCOC(C)=O) 360 nm; (in CN(C)C=O) 360 nm; (in CS(C)=O) 364 nm; (in Cc1ccccc1) 362 nm; (in ClC(Cl)Cl) 365 nm; (in ClCCCl) 368 nm. Moreover, the absorption maximum is, setting by setting: (in ClCCl) 366 nm; (in Clc1ccccc1) 367 nm.
In the case of `O=S(=O)(c1cccc(-n2c3ccccc3c3ccccc32)c1)c1cccc(-n2c3ccccc3c3ccccc32)c1`, the absorption maximum by setting is: (in C1CCOC1) 323 nm; (in Cc1ccccc1) 338 nm; (in ClC(Cl)Cl) 338 nm.
For `COc1nc(Nc2ccc3c4cccc5cccc(c6cccc2c63)c54)nc(OC)n1`, the absorption maximum came to 443 nm (in C1COCCO1), 444 nm (in CC#N), 442 nm (in CCCCOCCCC) and 441 nm (in CCOC(C)=O).
In the case of `CC(C)(C)Nc1oc(C=Cc2ccccc2)c(C(=O)OC(C)(C)C)c1C(=O)OC(C)(C)C`, where the note is “in CC#N”, the absorption maximum is on record as 384 nm.
`COc1ccccc1C1=[N+]2C(=C(c3ccccc3)c3c4c(c(-c5ccccc5OC)n3[B-]2(F)F)C2C=CC4CC2)C2=C1C1C=CC2CC1` (stereo not drawn): the absorption maximum (in ClCCl) worked out at 556 nm.
Regarding `C=CCOC(=O)C(C#N)=C1C=C(/C=C/c2ccc(N(C)C)cc2)OC(/C=C/c2ccc(N(C)C)cc2)=C1`, the absorption maximum by setting is: (in C1CCOC1) 470 nm; (in C1COCCO1) 462 nm; (in CC#N) 476 nm; (in CN(C)C=O) 486 nm; (in Cc1ccccc1) 467 nm; (in ClC(Cl)Cl) 479 nm. This compound also gave an absorption maximum (in ClCCCl) of 482 nm and an absorption maximum (in ClCCl) of 481 nm.
`COc1ccc(-c2ccc(-c3ccc(OC)cc3)cc2)cc1`: the absorption maximum (in C1CCCCC1) was 293 nm.
`Fc1c(F)c(F)c([B-]2(c3c(F)c(F)c(F)c(F)c3F)Oc3c(ccc4c5c(ccc34)C=[N+](c3ccccc3)[B-](c3c(F)c(F)c(F)c(F)c3F)(c3c(F)c(F)c(F)c(F)c3F)O5)C=[N+]2c2ccccc2)c(F)c1F`: the absorption maximum (in C1CCOC1) is recorded as 522 nm; the absorption maximum (in CC#N) stood at 515 nm; the absorption maximum (in CC(C)=O) is on record as 515 nm; the absorption maximum (in Cc1ccccc1) stood at 531 nm; the absorption maximum (in ClCCl) stood at 533 nm.
`CCCCCCn1c(=O)c2c3nc4cc5sc6c(nc5cc4sc3c3c(=O)n(CCCCCC)c(=O)c3c2c1=O)c1c(=O)n(CCCCCC)c(=O)c1c1c(=O)n(CCCCCC)c(=O)c61`: the absorption maximum (in ClCCl) was determined as 633 nm.
Regarding `CC(C)(C)c1ccc2c(c1)c1cc(C(C)(C)C)cc3c1n2-c1cc(-c2ccccc2F)cc2c1B3c1cc(C(C)(C)C)cc3c4cc(C(C)(C)C)ccc4n-2c13`, where the note is “in Cc1ccccc1”, the absorption maximum was 471.56 nm.
The compound `O=S(=O)([O-])c1cc(S(=O)(=O)Cl)ccc1C1=c2cc3c4c(c2Oc2c1cc1c5c2CCCN5CCC1)CCC[N+]=4CCC3` yielded an absorption maximum (in O) of 589 nm.
For the setting “in C1CCOC1”, `CCCc1ccc2c(c1)cc1n2B2c3c4c-1cccc4cc1cccc(c31)-c1cc3cc(CCC)ccc3n12` returned an absorption maximum of 537 nm.
In the case of `F[B-]1(F)n2c(c(-c3ccccc3)c3ccccc32)C(c2ccccc2)=C2C(c3ccccc3)=c3ccccc3=[N+]21`, the absorption maximum (in ClCCl) is given as 568 nm.
On the same count and under the same terms, then `COc1c2ccccc2c(OC)c2c(C#Cc3ccccc3)c3cc4sccc4cc3c(C#Cc3ccccc3)c12`, with 656 nm.
For `Cc1cc(C)c(C2=C3C=CC=[N+]3[B-]3(c4ccccc4)Oc4cc(O)cc5c6ccc(C)cc6c6cc2n3c6c45)c(C)c1` (stereo not drawn), the absorption maximum (in ClC(Cl)Cl) stood at 643 nm.
With `Nc1ccc2c(-c3ccccc3C(=O)[O-])c3ccc(=[NH2+])cc-3oc2c1`, the absorption maximum runs as follows: (in CC#N) 500 nm; (in CCO) 499 nm; (in CN(C)C=O) 515 nm; (in O) 497 nm.
For the compound `Cc1ccc(N(c2ccc(C)cc2)c2ccc(-c3ccc(-c4ccc(N(c5ccc(C)cc5)c5ccc(C)cc5)cc4)c4nsnc34)cc2)cc1`, the absorption maximum runs as follows: (in Cc1ccccc1) 474 nm; (in ClCCl) 485 nm.
The compound `COC(=O)c1cc(=O)n(Cc2ccccc2)c2cc(-c3ccc(OC)cc3)sc12` came in with an absorption maximum (in CC#N) of 400 nm and an absorption maximum (in ClCCl) of 404 nm.
As for `CCCCCCOc1cc(N(CC)CC)ccc1/C=C(\C#N)c1ccc(/C=C/C(=C(C#N)C#N)c2ccc3c(c2)c2ccccc2n3CC)s1`, where the note is “in ClCCl”, the absorption maximum worked out at 570 nm.
The compound `CCN(CC)c1ccc2c(c1)OC1=C(/C=C/C3=[N+](C)c4ccccc4C3(C)C)CCCC1=C2c1ccccc1C(=O)O` returned an absorption maximum (in CC#N) of 708 nm, an absorption maximum (in CCO) of 700 nm, an absorption maximum (in CO) of 700 nm and an absorption maximum (in ClC(Cl)Cl) of 716 nm.
For the compound `N#Cc1c(N2CCCCC2)cc(-c2ccc(-c3ccccc3)s2)c2c1CCc1ccccc1-2`, the absorption maximum (in C1CCOC1) was 345 nm.
As to `C(=C1c2ccccc2-c2ccccc21)c1ccc(-c2ccc(C=C3c4ccccc4-c4ccccc43)cc2)cc1`, under “in C1CCOC1”, the absorption maximum was found to be 366 nm.
Consider `CC(C)CN1C(=O)/C(=C/c2ccc(C#N)cc2)C=C1c1ccccc1`, for which, where the note is “in C1COCCO1”, the absorption maximum came to 440 nm.
For the setting “in CCO”, `Nc1cc(F)c(C(=O)c2cc(F)c(F)cc2F)cc1F` gave an absorption maximum of 335 nm.
